This is an account of results in patent US9181258B2, “Substituted 3,4-dihydropyrrolo[1,2-a]pyrazin-1(2H)-ones as protein kinase inhibitors” (NERVIANO MEDICAL SCIENCES S.R.L., priority 2011, dated 2015).

pIC50: −log10 of the molar value. Structures can show the parent of a compound that is named as a salt. Where two headings read alike, the source gives them in different places.

For one experiment, the target named is human PIM1 (Homo sapiens (Human), UniProt P11309). The experiment in a line: Biochemical assay for inhibitors of PIM1 kinase activity (trans-phosphorylation, Dowex technique). As to conditions: ATP 200 μM, Aktide 25 μM, enzyme 1 nM; read-out: PIM-1 IC50. An outline of the steps:
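Full-length human PIM1 (1 nM) phosphorylates Aktide (25 μM) with 200 μM ATP plus 6 nM ^33P-γ-ATP in HEPES 50 mM pH 7.5, 10 mM MgCl2, 1 mM DTT, 3 μM NaVO3, 0.2 mg/mL BSA. Unreacted ATP captured on Dowex resin, supernatant β-counted; IC50 from ten-point 1:3 dilution sigmoidal fit.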

The next experiment addresses human PIM2 (Homo sapiens (Human), UniProt Q9P1W9). The experiment in a line: PIM2 kinase inhibition assay: Dowex technique. Format: biochemical. The note with it: ATP 4 μM, Aktide 5 μM, enzyme 1.5 nM; read-out: PIM-2 IC50. An outline of the steps:
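Radiometric Dowex read-out, run as for PIM1, with 50 mM HEPES pH 7.5, 1 mM MgCl2, 1 mM DTT, 3 μM Na3VO4 and 0.2 mg/mL BSA. Final conditions: 5 μM Aktide substrate, 4 μM ATP spiked with 1 nM 33P-γ-ATP, 1.5 nM full-length human enzyme.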

Another experiment concerns BaF3-PIM1 cells. The experiment in a line: In vitro cell proliferation assay (CellTiter-Glo), BaF3-PIM1. Format: cell-based. The note with it: 72 hours.
The test system of a further experiment is MV-4-11 cells. The experiment in a line: In vitro cell proliferation assay (CellTiter-Glo), MV-4-11. It counts as cell-based. How it is done:
In Vitro Cell Proliferation Assay
MV-4-11 (biphenotypic B myelomonocytic leukemia) cell line was obtained from ATCC.
Media for MV-4-11 cell line contained RPMI 1640 or EMEM plus 2 mM Glutamine and 10% Fetal bovine serum.
BaF3-PIM1 and MV-4-11 cells were seeded at 125 cells/well and 1250 cells/well respectively in a 384-well white plates in complete medium and treated with compounds dissolved in 0.1% DMSO, 24 h after seeding.
The cells were incubated at 37° C. and 5% CO2 and after 72 hours the plates were processed using CellTiter-Glo assay (Promega) following the manufacturer's instruction.
CellTiter-Glo was a homogenous method based on the quantification of the ATP present, an indicator of metabolitically active cells. ATP was quantified using a system based on luciferase and D-luciferin resulting into light generation. The luminescent signal was proportional to the number of cells present in culture.
Briefly 25 μl/well reagent solution were added to each wells and after 5 minutes shacking microplates were red by Envision (PerkinElmer) luminometer. The luminescent signal was proportional to the number of cells present in culture.
Inhibitory activity was evaluated comparing treated versus control data using Assay Explorer (MDL) program. IC50 was calculated using sigmoidal interpolation curve.

The pIC50 is the negative decadic logarithm of the IC50, by convention in mol/L.

Sequence of human PIM1 (P11309 whole entry): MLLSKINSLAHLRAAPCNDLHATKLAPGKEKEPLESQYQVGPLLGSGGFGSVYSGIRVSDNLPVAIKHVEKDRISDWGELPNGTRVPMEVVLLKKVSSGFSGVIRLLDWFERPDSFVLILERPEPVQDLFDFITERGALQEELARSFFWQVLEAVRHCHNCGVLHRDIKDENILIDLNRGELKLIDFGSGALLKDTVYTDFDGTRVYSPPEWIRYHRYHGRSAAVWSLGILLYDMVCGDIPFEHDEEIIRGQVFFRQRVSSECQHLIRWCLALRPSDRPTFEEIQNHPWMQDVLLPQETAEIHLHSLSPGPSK
Sequence of human PIM2 (Q9P1W9 whole entry): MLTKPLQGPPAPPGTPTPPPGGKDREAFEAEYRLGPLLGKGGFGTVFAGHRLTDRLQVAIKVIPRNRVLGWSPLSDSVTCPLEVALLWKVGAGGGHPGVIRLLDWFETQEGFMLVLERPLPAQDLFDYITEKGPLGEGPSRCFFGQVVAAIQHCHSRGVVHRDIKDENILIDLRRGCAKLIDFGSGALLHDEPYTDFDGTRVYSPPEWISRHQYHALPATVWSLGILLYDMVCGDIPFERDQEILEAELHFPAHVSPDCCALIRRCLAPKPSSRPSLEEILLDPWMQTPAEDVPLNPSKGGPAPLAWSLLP

Turning to `NCCC[C@H]1CNC(=O)c2cc(-c3cccc(OC(F)(F)F)c3)c(-c3ccccc3)n21` [Compound 102, (4S)-4-(3-aminopropyl)-6-phenyl-7-[3-(trifluoromethoxy)phenyl]-3,4-dihydropyrrolo[1,2-a]pyrazin-1(2H)-one hydrochloride], the pIC50 at human PIM1 was 7.72; at human PIM2, 6.81; with BaF3-PIM1 cells it was 6.08; in the experiment on MV-4-11 cells (Homo sapiens, MV4-11, 72 hours), 5.79.

With `NCCC[C@H]1CNC(=O)c2cc(-c3cccc(OC(F)(F)F)c3)c(-c3ccsc3)n21` [Compound 103, (4S)-4-(3-aminopropyl)-6-(thiophen-3-yl)-7-[3-(trifluoromethoxy)phenyl]-3,4-dihydropyrrolo[1,2-a]pyrazin-1(2H)-one hydrochloride], the pIC50 was 7.96 at human PIM1; 6.82 on human PIM2; 5.93 with BaF3-PIM1 cells; 5.53 in the experiment with MV-4-11 cells (Homo sapiens, MV4-11, 72 hours).

For the compound `CC(=O)c1ccc(-c2c(-c3cccc(OC(F)(F)F)c3)cc3n2[C@@H](CCCN)CNC3=O)cc1` [Compound 110, (4S)-6-(4-acetylphenyl)-4-(3-aminopropyl)-7-[3-(trifluoromethoxy)phenyl]-3,4-dihydropyrrolo[1,2-a]pyrazin-1(2H)-one hydrochloride], the pIC50 on human PIM1 was 7.66; at human PIM2 it was 6.89; with BaF3-PIM1 cells, 5.41; with MV-4-11 cells (Homo sapiens, MV4-11, 72 hours), 5.50.

Consider `NCC[C@H]1CNC(=O)c2cc(-c3cccc(OC(F)(F)F)c3)c(-c3ccc4c(c3)OCO4)n21` [Compound 112, (4S)-4-(2-aminoethyl)-6-(1,3-benzodioxol-5-yl)-7-[3-(trifluoromethoxy)phenyl]-3,4-dihydropyrrolo[1,2-a]pyrazin-1(2H)-one hydrochloride], for which the pIC50 on human PIM1 is 8.22; on human PIM2, 7.80; with BaF3-PIM1 cells, 7.15; in the experiment with MV-4-11 cells (Homo sapiens, MV4-11, 72 hours), 5.75.

Regarding `CN(C)c1ccc(-c2c(-c3cccc(OC(F)(F)F)c3)cc3n2[C@@H](CCN)CNC3=O)cc1` [Compound 115, (4S)-4-(2-aminoethyl)-6-[4-(dimethylamino)phenyl]-7-[3-(trifluoromethoxy)phenyl]-3,4-dihydropyrrolo[1,2-a]pyrazin-1(2H)-one hydrochloride], the pIC50 was 8.52 at human PIM1; 7.34 on human PIM2; 7.12 in the experiment on BaF3-PIM1 cells; 6.09 with MV-4-11 cells (Homo sapiens, MV4-11, 72 hours).

`COc1ccc(-c2c(-c3cccc(OC(F)(F)F)c3)cc3n2[C@@H](CCN)CNC3=O)cc1` [Compound 116, (4S)-4-(2-aminoethyl)-6-(4-methoxyphenyl)-7-[3-(trifluoromethoxy)phenyl]-3,4-dihydropyrrolo[1,2-a]pyrazin-1(2H)-one hydrochloride]: the pIC50 at human PIM1 was 8.52; on human PIM2, 7.66; in the experiment on BaF3-PIM1 cells it was 6.85; in the experiment with MV-4-11 cells (Homo sapiens, MV4-11, 72 hours), 6.06.

Take `NCC[C@H]1CNC(=O)c2cc(-c3cccc(OC(F)(F)F)c3)c(-c3ccc4ccccc4c3)n21` [Compound 118, (4S)-4-(2-aminoethyl)-6-(naphthalen-2-yl)-7-[3-(trifluoromethoxy)phenyl]-3,4-dihydropyrrolo[1,2-a]pyrazin-1(2H)-one hydrochloride]: the pIC50 on human PIM1 was 7.57; on human PIM2, 6.82; in the experiment with BaF3-PIM1 cells it was 6.51; in the experiment with MV-4-11 cells (Homo sapiens, MV4-11, 72 hours), 6.12.

For the compound `NCC[C@H]1CNC(=O)c2cc(-c3cccc(OC(F)(F)F)c3)c(-c3ccc(S(N)(=O)=O)cc3)n21` [Compound 120, 4-{(4S)-4-(2-aminoethyl)-1-oxo-7-[3-(trifluoromethoxy)phenyl]-1,2,3,4-tetrahydropyrrolo[1,2-a]pyrazin-6-yl}benzenesulfonamide hydrochloride], the pIC50 is 9.00 at human PIM1; 8.52 at human PIM2; 5.87 in the experiment with BaF3-PIM1 cells; 5.27 in the experiment on MV-4-11 cells (Homo sapiens, MV4-11, 72 hours).

For the compound `NCC[C@H]1CNC(=O)c2cc(-c3cccc(OC(F)(F)F)c3)c(-c3cccc(F)c3)n21` [Compound 121, (4S)-4-(2-aminoethyl)-6-(3-fluorophenyl)-7-[3-(trifluoromethoxy)phenyl]-3,4-dihydropyrrolo[1,2-a]pyrazin-1(2H)-one hydrochloride], the pIC50 at human PIM1 is 8.52; on human PIM2 it was 7.92; with BaF3-PIM1 cells, 7.07; in the experiment on MV-4-11 cells (Homo sapiens, MV4-11, 72 hours), 6.18.

On to `Cc1cc(-c2c(-c3cccc(OC(F)(F)F)c3)cc3n2[C@@H](CCN)CNC3=O)ccc1F` [Compound 122, (4S)-4-(2-aminoethyl)-6-(4-fluoro-3-methylphenyl)-7-[3-(trifluoromethoxy)phenyl]-3,4-dihydropyrrolo[1,2-a]pyrazin-1(2H)-one hydrochloride], for which the pIC50 on human PIM1 was 7.77; on human PIM2, 7.07; with BaF3-PIM1 cells, 6.78; in the experiment on MV-4-11 cells (Homo sapiens, MV4-11, 72 hours) it was 6.11.

`CSc1ccc(-c2c(-c3cccc(OC(F)(F)F)c3)cc3n2[C@@H](CCN)CNC3=O)cc1` [Compound 123, (4S)-4-(2-aminoethyl)-6-[4-(methylsulfanyl)phenyl]-7-[3-(trifluoromethoxy)phenyl]-3,4-dihydropyrrolo[1,2-a]pyrazin-1(2H)-one hydrochloride]: the pIC50 on human PIM1 was 7.80; at human PIM2, 7.35; with BaF3-PIM1 cells, 7.05; in the experiment on MV-4-11 cells (Homo sapiens, MV4-11, 72 hours) it was 6.14.

Regarding `CC(C)(C)c1ccc(-c2c(-c3cccc(OC(F)(F)F)c3)cc3n2[C@@H](CCN)CNC3=O)cc1` [Compound 124, (4S)-4-(2-aminoethyl)-6-(4-tert-butylphenyl)-7-[3-(trifluoromethoxy)phenyl]-3,4-dihydropyrrolo[1,2-a]pyrazin-1(2H)-one hydrochloride], the negative logarithm of the IC50 (pIC50) at human PIM1 was 7.62; at human PIM2, 6.80; in the experiment with BaF3-PIM1 cells, 6.89; with MV-4-11 cells (Homo sapiens, MV4-11, 72 hours), 6.33.

For `NCC[C@H]1CNC(=O)c2cc(-c3cccc(OC(F)(F)F)c3)c(-c3cccc(C(F)(F)F)c3)n21` [Compound 125, (4S)-4-(2-aminoethyl)-7-[3-(trifluoromethoxy)phenyl]-6-[3-(trifluoromethyl)phenyl]-3,4-dihydropyrrolo[1,2-a]pyrazin-1(2H)-one hydrochloride], the pIC50 at human PIM1 was 7.36; at human PIM2 it was 7.01; in the experiment on BaF3-PIM1 cells, 6.52; in the experiment with MV-4-11 cells (Homo sapiens, MV4-11, 72 hours) it was 6.03.

In the case of `NCC[C@H]1CNC(=O)c2cc(-c3cccc(OC(F)(F)F)c3)c(-c3cccc(Cl)c3)n21` [Compound 126, (4S)-4-(2-aminoethyl)-6-(3-chlorophenyl)-7-[3-(trifluoromethoxy)phenyl]-3,4-dihydropyrrolo[1,2-a]pyrazin-1(2H)-one hydrochloride], the pIC50 was 7.89 at human PIM1; 7.68 at human PIM2; 6.90 in the experiment with BaF3-PIM1 cells; 6.11 in the experiment on MV-4-11 cells (Homo sapiens, MV4-11, 72 hours).

On to `CCOc1ccc(-c2c(-c3cccc(OC(F)(F)F)c3)cc3n2[C@@H](CCN)CNC3=O)cc1F` [Compound 127, (4S)-4-(2-aminoethyl)-6-(4-ethoxy-3-fluorophenyl)-7-[3-(trifluoromethoxy)phenyl]-3,4-dihydropyrrolo[1,2-a]pyrazin-1(2H)-one hydrochloride], for which the pIC50 was 7.92 on human PIM1; 7.62 on human PIM2; 6.90 in the experiment with BaF3-PIM1 cells; 6.36 with MV-4-11 cells (Homo sapiens, MV4-11, 72 hours).

Turning to `COc1c(C)cc(-c2c(-c3cccc(OC(F)(F)F)c3)cc3n2[C@@H](CCN)CNC3=O)cc1C` [Compound 128, 4S)-4-(2-aminoethyl)-6-(4-methoxy-3,5-dimethyl phenyl)-7-[3-(trifluoromethoxy)phenyl]-3,4-dihydropyrrolo[1,2-a]pyrazin-1(2H)-one hydrochloride], the pIC50 on human PIM1 was 8.10; on human PIM2 it was 7.49; with BaF3-PIM1 cells, 6.76; with MV-4-11 cells (72 hours, read-out: MV4-11 IC50), 6.33.

Take `COc1ccc(-c2c(-c3cccc(OC(F)(F)F)c3)cc3n2[C@@H](CCN)CNC3=O)cc1Cl` [Compound 129, (4S)-4-(2-aminoethyl)-6-(3-chloro-4-methoxyphenyl)-7-[3-(trifluoromethoxy)phenyl]-3,4-dihydropyrrolo[1,2-a]pyrazin-1(2H)-one hydrochloride]: the pIC50 at human PIM1 is 8.52; on human PIM2, 7.92; in the experiment with BaF3-PIM1 cells, 6.70; in the experiment with MV-4-11 cells (Homo sapiens, MV4-11, 72 hours), 6.15.

`CN(C)Cc1ccc(-c2c(-c3cccc(OC(F)(F)F)c3)cc3n2[C@@H](CCCN)CNC3=O)cc1` [Compound 134, (4S)-4-(3-aminopropyl)-6-{4-[(dimethylamino)methyl]phenyl}-7-[3-(trifluoromethoxy)phenyl]-3,4-dihydropyrrolo[1,2-a]pyrazin-1(2H)-one dihydrochloride]: the negative-log IC50 (pIC50) on human PIM1 is 8.70; on human PIM2, 7.18; with BaF3-PIM1 cells, 5.36; in the experiment with MV-4-11 cells (Homo sapiens, MV4-11, 72 hours) it was 5.15.
